Measurements taken from patent US20020162794A1, “Anaerobic digestion” (priority 2001, published 2002).

How the values were obtained:
[1] = system: anaerobic mixed culture (domestic sewage); assay: Anaerobic digestion of domestic sewage, overall effect of formate salt concentration; conditions: for effect on anaerobic digestion over the tested concentration range: 10 mg/L to 100,000 mg/L based on the organic matter available for digestion
Method: The various formate salts include, but are not limited to sodium formate (NaHCOO), potassium formate (KHCOO), ammonium formate (NH4COO), calcium formate (Ca(HCOO)2), and others either singly or in combination. These formate salts have been tested for concentrations ranging from 10 mg/L (˜10 ppm) to as high as […] (100,000 mg/L) based on the organic matter available for digestion.
Two tests were run in which sodium formate in concentrations ranging from a few parts per million (ppm) up to ten percent (10%) on a mass basis were added to samples taken from a publicly owned anaerobic digester. The samples were first cultured in laboratory sized batch reactors. The twelve batch reactors were then sampled, and studied for periods of up to fifty-five days. The process variables that were monitored included COD (Chemical Oxygen Demand), TS (Total Solids), TVS (Total Volatile Solids) and the pH of the culture. Time and the initial sodium formate concentration level were the independent variables. Finally measurements were also made of the bacterial counts at the beginning and at the end of the fifty five day period.
Municipal sludge from the city of Lubbock, Wastewater Treatment Plant was digested in 12 batch digesters. Using twelve batch reactors allowed the collection of control reactors data (i.e., no formate in the reactors) in triplicate, titration studies of increasing formate concentration, and duplicates/triplicates of varying formate concentration. Experiments were conducted in the laboratories of Texas Tech University.

[2] = system: microorganisms in domestic sewage; conditions: sodium chloride spike; cited from earlier work

| SMILES | effect on anaerobic digestion over the tested concentration range [1] | concentration range of greatest effects ([1]; 10 mg/L to 100,000 mg/L tested) | toxicity of sodium levels [2] |
| --- | --- | --- | --- |
| N.O=CO [ammonium formate] | initiate the inhibition of digestion at concentrations above a few thousand mg/L | – | – |
| O=C[O-].[K+] [potassium formate] | beneficial at all concentration levels | greatest effects being observed over the 100 ppm to the 2,000-mg/L range | – |
| [Cl-].[Na+] [sodium chloride] | – | – | toxic to all microorganisms in domestic sewage at levels above three to four percent |
